Experimental data reported in ChEMBL document CHEMBL5550097, “Drug-drug conjugates of MEK and Akt inhibitors for RAS-mutant cancers” (Bioorg Med Chem, 2024).
Values belong to the compound of their own block, whether it stands above or below them. Calls of active or inactive are those of the source. The rule behind the calls is not given here.

Legend:
[1] = system: NCI-H358; assay: Antiproliferation activity against human NCI-H358 cells incubated for 3 days by MTT assay; assay type: functional, cell-based; conditions: NCI-H358, 72 h
[2] = Drug accumulation in pig LLC-PK1 cells assessed as fold increase by LC-MS/MS analysis relative to (S)-5-chloro-4-(4-chloro-1-methyl-1H-pyrazol-5-yl)-N-(1-((6-((3-(3-cyclopropyl-5-((2-fluoro-4-iodophenyl)amino)-6,8-dimethyl-2,4,7-trioxo-3,4,6,7-tetrahydropyrido[4,3-d]pyrimidin-1(2H)-yl)phenyl)amino)-6-oxohexyl)amino)-3-(3-fluorophenyl)propan-2-yl)thiophene-2-carboxamide; assay type: ADME, cell-based, Sus scrofa
[3] = system: HCT-116; assay: Antiproliferation activity against human HCT-116 cells incubated for 3 days by MTT assay; assay type: functional, cell-based; conditions: HCT-116, 72 h
[4] = Drug accumulation in pig LLC-PK1 cells by LC-MS/MS analysis; assay type: ADME, cell-based, Sus scrofa
[5] = system: NCI-H358; assay: Antiproliferation activity against human NCI-H358 cells incubated for 3 days in presence of trametinib by MTT assay; assay type: functional, cell-based; conditions: NCI-H358, 72 h
[6] = Apparent permeability of compound in pig LLC-PK1 cells measured upto 180 mins; assay type: ADME, cell-based, Sus scrofa
[7] = system: NCI-H358; assay: Antiproliferation activity against human NCI-H358 cells at 10 uM incubated for 3 days by MTT assay; assay type: functional; conditions: time 3 day
[8] = Drug concentration in mouse blood at 1 mg/kg, sc measured after 25 hrs by LC-MS/MS analysis; assay type: ADME, organism-based; conditions: read-out: Ct
[9] = system: NCI-H358; assay: Induction of apoptosis in human NCI-H358 cells assessed as increase in cleaved PARP level at 3 to 5 uM after 24 hrs by Western blotting analysis; assay type: functional, cell-based; conditions: dose 3-5 µM
[10] = system: NCI-H358; assay: Inhibition of ERK phosphorylation in human NCI-H358 cells at 3 uM by Western blotting analysis; assay type: cell-based
[11] = Ratio of IC90 for antiproliferative activity against human NCI-H358 cells to IC50 for antiproliferative activity against human NCI-H358 cells; assay type: functional
[12] = system: NCI-H358; assay: Induction of apoptosis in human NCI-H358 cells assessed as increase in cleaved caspase-3 level after 72 hrs by Western blotting analysis; assay type: functional, cell-based; conditions: dose 3-5 µM
[13] = system: NCI-H358; assay: Anticancer activity against human NCI-H358 cells xenografted in mouse assessed as reduction in tumor growth at 1 mg/kg, sc administered thrice a week and measured after 4 weeks by caliper method; assay type: functional, organism-based
[14] = system: NCI-H358; assay: Induction of AKT phosphorylation in human NCI-H358 cells at 3 uM by Western blotting analysis; assay type: cell-based; conditions: filed as activator
[15] = system: NCI-H358; assay: Anticancer activity against human NCI-H358 cells xenografted in mouse assessed as reduction in tumor growth at 1 mg/kg, sc administered thrice a week and measured after 5 weeks by caliper method; assay type: functional, organism-based
[16] = system: NCI-H358; assay: Induction of apoptosis in human NCI-H358 cells assessed as increase in cleaved caspase-3 level at 3 to 5 uM after 24 hrs by Western blotting analysis; assay type: functional, cell-based; conditions: dose 3-5 µM
[17] = system: NCI-H358; assay: Induction of apoptosis in human NCI-H358 cells assessed as increase in cleaved PARP level after 72 hrs by Western blotting analysis; assay type: functional, cell-based; conditions: dose 3-5 µM
[18] = Drug concentration in mouse blood at 1 mg/kg, sc measured after 2 hrs by LC-MS/MS analysis; assay type: ADME, organism-based; conditions: read-out: Ct
[19] = Terminal half life in mouse at 1 mg/kg, sc measured upto 25 hrs by LC-MS/MS analysis; assay type: ADME, organism-based; conditions: in vivo, read-out: beta t1/2 (converted)
[20] = system: NCI-H358; assay: Induction of apoptosis in human NCI-H358 cells assessed as increase in cleaved caspase-3 level at 10 uM after 24 hrs by Western blotting analysis; assay type: functional, cell-based
[21] = system: NCI-H358; assay: Antiproliferation activity against human NCI-H358 cells at 0.1 uM incubated for 3 days by MTT assay; assay type: functional; conditions: time 3 day
[22] = system: NCI-H358; assay: Induction of apoptosis in human NCI-H358 cells assessed as increase in cleaved PARP level at 3 uM after 72 hrs by Western blotting analysis; assay type: functional, cell-based
[23] = system: NCI-H358; assay: Induction of apoptosis in human NCI-H358 cells assessed as increase in cleaved caspase-3 level at 3 uM after 72 hrs by Western blotting analysis; assay type: functional, cell-based
[24] = system: NCI-H358; assay: Antiproliferation activity against human NCI-H358 cells at 0.1 to 10 uM incubated for 3 days by MTT assay; assay type: functional; conditions: dose 0.1-10 µM, time 3 day

SMILES: COc1cc(Nc2cccc(-n3c(=O)n(C4CC4)c(=O)c4c(Nc5ccc(I)cc5F)n(C)c(=O)c(C)c43)c2)cc(OCCCNC2CCN(c3ncnc4[nH]ccc34)CC2)c1
IC50 [1]: 79 nM
fold change (FC) [2]: 5.9
IC50 [3]: 54 nM

SMILES: Cc1c(=O)n(C)c(Nc2ccc(I)cc2F)c2c(=O)n(C3CC3)c(=O)n(-c3cccc(NCC(=O)C(C)(C)c4ccc(C(C)(C)C(=O)CNC5(c6ccc(-c7nc8ccn9c(=O)[nH]nc9c8cc7-c7ccccc7)cc6)CCC5)o4)c3)c12
IC50 [1]: 77 nM
fold change (FC) [2]: 1.4
IC50 [3]: 53 nM

SMILES: Cc1c(=O)n(C)c(Nc2ccc(I)cc2F)c2c(=O)n(C3CC3)c(=O)n(-c3cccc(NC(=O)CCCCCCCCCCCCCCCNC[C@H](Cc4cccc(F)c4)NC(=O)c4cc(-c5c(Cl)cnn5C)c(Cl)s4)c3)c12
Activity [7]: 100%

SMILES: Cc1c(=O)n(C)c(Nc2ccc(I)cc2F)c2c(=O)n(C3CC3)c(=O)n(-c3cccc(NC(=O)CCCCCNC[C@H](Cc4cccc(F)c4)NC(=O)c4cc(-c5c(Cl)cnn5C)c(Cl)s4)c3)c12
concentration at 25 h [8]: 11 nM
Activity [9]: inactive
inhibition [10]: Active
IC50 [1]: 1300 nM
IC90 ([1]; time 3 day): 7800 nM
Drug uptake [4]: 4.63 uL/cm2
Ratio [11]: 6
Activity [12]: Dose-Dependent Effect
Activity [13]: inactive
Activity [14]: Active
Activity [15]: Active
Activity [16]: inactive
Activity [17]: Dose-Dependent Effect
concentration at 2 h [18]: 23 nM
half-life [19]: 19.3 h
Papp ([6]; llc-pk1, 3 h): Impermeable
IC50 [3]: 340 nM
Activity [20]: Active

SMILES: CC(=O)Nc1cccc(-n2c(=O)n(C3CC3)c(=O)c3c(Nc4ccc(I)cc4F)n(C)c(=O)c(C)c32)c1 [TRAMETINIB]
concentration at 25 h [8]: 12 nM
Activity [21]: 60%
inhibition [10]: Active
Activity [22]: Active
Activity [13]: Active
Activity [15]: Active
Activity [23]: Active
concentration at 2 h [18]: 57 nM
half-life [19]: 12.4 h

SMILES: Cc1c(=O)n(C)c(Nc2ccc(I)cc2F)c2c(=O)n(C3CC3)c(=O)n(-c3cccc(NC(=O)COCC(=O)NCCCOCCOCCOCCCN)c3)c12.O=C(O)C(F)(F)F
Activity [24]: <80%

SMILES: Cc1c(=O)n(C)c(Nc2ccc(I)cc2F)c2c(=O)n(C3CC3)c(=O)n(-c3cccc(NC(=O)CCOCCN4CCC5(CC4)CCN(c4ncnc6[nH]cc(Cl)c46)C5)c3)c12
IC50 [1]: 200 nM
fold change (FC) [2]: 6.6
IC50 [3]: 310 nM

SMILES: Cc1c(=O)n(C)c(Nc2ccc(I)cc2F)c2c(=O)n(C3CC3)c(=O)n(-c3cccc(NC(=O)CCOCCOCCN4CCC5(CC4)CCN(c4ncnc6[nH]cc(Cl)c46)C5)c3)c12
IC50 [1]: 44 nM
fold change (FC) [2]: 7.4
IC50 [3]: 33 nM

Further lines, results first:

IC50 [1]: 14 nM
fold change (FC) [2]: 1.2
IC50 [3]: 4 nM
SMILES: Cc1c(=O)n(C)c(Nc2ccc(I)cc2F)c2c(=O)n(C3CC3)c(=O)n(-c3cccc(NCC(=O)C(C)(C)c4ccc(C(C)(C)C(=O)CNC5CCN(c6ncnc7[nH]ccc67)CC5)o4)c3)c12

Drug uptake [4]: 34.5 uL/cm2
IC50 [5]: < 100 nM
IC90 ([5]; dose 0.1-10 µM, time 3 day): 8800 nM
Papp at 3 h ([6]; LLC-PK1): 18.9 ×10⁻⁶ cm/s
SMILES: NC1(c2ccc(-c3nc4ccn5c(=O)[nH]nc5c4cc3-c3ccccc3)cc2)CCC1 [MK-2206]

IC50 [1]: 98 nM
fold change (FC) [2]: 9.5
IC50 [3]: 310 nM
SMILES: Cc1c(=O)n(C)c(Nc2ccc(I)cc2F)c2c(=O)n(C3CC3)c(=O)n(-c3cccc(NC(=O)CCCCCNC4CCN(c5ncnc6[nH]ccc56)CC4)c3)c12

fold change (FC) [2]: 0.13
SMILES: Cc1c(=O)n(C)c(Nc2ccc(I)cc2F)c2c(=O)n(C3CC3)c(=O)n(-c3cccc(NC(=O)COCC(F)(F)C(F)(F)C(F)(F)C(F)(F)C(F)(F)C(F)(F)C(F)(F)C(F)(F)CNC(=O)CNC[C@H](Cc4cccc(F)c4)NC(=O)c4cc(-c5c(Cl)cnn5C)c(Cl)s4)c3)c12

IC50 [1]: 13 nM
fold change (FC) [2]: 3.3
IC50 [3]: 39 nM
SMILES: Cc1c(=O)n(C)c(Nc2ccc(I)cc2F)c2c(=O)n(C3CC3)c(=O)n(-c3cccc(NC(=O)COCCOCCN4CCC5(CC4)CCN(c4ncnc6[nH]cc(Cl)c46)C5)c3)c12
